Laboratory results from paper PMC5537225, “Therapeutic efficacy of a respiratory syncytial virus fusion inhibitor” (Nature Communications, 2017).
Like-named read-outs stand apart in the source and are kept apart here.

Experiments:
[1] = system: rgRSV224 D489Y mutant strain; format: cell-based, respiratory syncytial virus
[2] = system: rgRSV224 L141W mutant strain; format: cell-based, respiratory syncytial virus; conditions: mutant selected with JNJ-53718678
rgRSV224 = test: microbe, parasite or virus in culture; format: cell-based, respiratory syncytial virus; conditions: for EC50: human respiratory syncytial virus, HeLa
DENV-2 = test: microbe, parasite or virus in culture; format: cell-based; conditions: Dengue virus, read-out: EC50 DENV
post-fusion RSV F = format: binding; conditions: ITC
recombinant MV = test: MV assay in Vero/hSLAM cells; conditions: Measles morbillivirus, Vero, read-out: EC50 MV
L141W mutant RSV = format: cell-based, respiratory syncytial virus; conditions: A549 cells, time-lapse imaging 48 h
in vitro [3] = conditions: African green monkey
in vitro [4] = conditions: African green monkey; remark: listed apart in the source
Long strain RSV = test: In vivo efficacy in RSV-infected cotton rats; parameters: species or system Sigmodon hispidus cotton rats
[5] = dog
recombinant hMPV = test: microbe, parasite or virus in culture; format: cell-based; conditions: human metapneumovirus, Vero/TMPRSS2; mean of at least 3 experiments
HeLa RH cells = conditions: human, 3 days
Protocol: (§1) After 3 days of incubation at 33 °C, cytopathic effect (CPE) was quantified by measuring the ATP content in compound-treated and non-treated cells with ATPlite kit according to the manufacturer’s instructions. Cytotoxicity of the compound was determined in a parallel set of plates mock-infected with cell culture medium. After 3 days of incubation at 33 °C, ATP content in compound-treated and non-treated cells was quantified with ATPlite kit.

RSV M37 strain = test: In vivo efficacy in RSV-infected neonatal lambs
in vivo [6] = conditions: 10 mg/kg
[7] = system: soluble prefusion ectodomain of F protein; conditions: DSF
[8] = molecular target: T1, prefusion-stabilized RSV F protein (DS-Cav1) (Human respiratory syncytial virus A, UniProt P03420, I379V/M447V/S155C/S190F/S290C/V207L); test: biochemical; format: binding; conditions: ITC
T1 construct: purification tags incl; made in house; host or cells: FreeStyle 293 F cells, with kifunensine
T1 sequence (P03420 137-513, looked up, stated change not applied): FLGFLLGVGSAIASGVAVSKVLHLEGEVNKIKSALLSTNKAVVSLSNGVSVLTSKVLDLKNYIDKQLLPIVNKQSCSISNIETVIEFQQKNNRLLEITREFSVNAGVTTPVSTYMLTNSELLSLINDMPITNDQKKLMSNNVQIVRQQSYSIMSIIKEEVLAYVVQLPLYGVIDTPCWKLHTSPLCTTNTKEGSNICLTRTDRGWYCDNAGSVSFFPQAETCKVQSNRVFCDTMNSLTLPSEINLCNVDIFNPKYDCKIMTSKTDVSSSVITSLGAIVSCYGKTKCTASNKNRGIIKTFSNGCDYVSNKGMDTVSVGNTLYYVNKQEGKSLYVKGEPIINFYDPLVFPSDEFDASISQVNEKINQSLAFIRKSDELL
T1 sequence (P03420 26-109, stated change not applied): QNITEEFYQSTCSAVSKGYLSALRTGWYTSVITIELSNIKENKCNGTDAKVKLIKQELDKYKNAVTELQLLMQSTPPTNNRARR

[9] = molecular target: T2, prefusion L141W mutant RSV F (DS-Cav1) (Human respiratory syncytial virus A, UniProt P03420, I379V/L141W/M447V/S155C/S190F/S290C/V207L); format: binding; conditions: ITC; 1:1 fits could not be determined
T2 construct: purification tags incl; made in house; host or cells: FreeStyle 293 F cells, with kifunensine
T2 sequence (P03420 137-513, looked up, stated change not applied): as the sequence (P03420 137-513, looked up, stated change not applied) above
T2 sequence (P03420 26-109, stated change not applied): as the sequence (P03420 26-109, stated change not applied) above

RSV A and B strains = conditions: HeLa cells
Protocol: Briefly, black 384-well clear-bottom microtiter plates were filled in quadruplicate using a customized robot system with serial fourfold dilutions of compound in a final volume of 200 nl dimethylsulfoxide (DMSO). Then, 20 µl of a HeLa cell suspension (5 × 10^4 cells ml^−1) in culture medium was added to each well followed by the addition of 20 µl RSV (multiplicity of infection, MOI = 0.02) in culture medium, or 20 µl culture medium for cell controls, using a multidrop dispenser. […] In parallel, compounds were incubated for 3 days in a set of white 384-well microtiter plates and the cytotoxicity of compounds in HeLa cells (CC50) was determined by measuring the adenosine triphosphate (ATP) content of the cells using the ATPlite kit (PerkinElmer, Waltham, MA) according to the manufacturer’s instructions. The activity of the compound against non-recombinant RSV A and B strains was determined similarly by plaque assay[70].

recombinant PIV-3 strain = test: microbe, parasite or virus in culture; format: cell-based, human parainfluenza virus 3; conditions: Human respirovirus 3, Vero; mean of at least 3 experiments
HRV 16 = test: HRV assay (CPE, HeLa RH cells), HRV 16; conditions: Rhinovirus A, read-out: EC50 HRV 16
Protocol: as §1

in vitro [10] = conditions: human
Protocol: Briefly, 96-well plates were filled with 100 µl/well of HepG2.117 cells (2 × 10^4 cells per well) and incubated overnight at 37 °C in a humidified atmosphere containing 5% CO2.

in vitro [11] = conditions: African green monkey; remark: listed apart in the source
Protocol: Briefly, black 384-well clear-bottom microtiter plates were filled in quadruplicate using a customized robot system with serial fourfold dilutions of compound in a final volume of 200 nl DMSO. Then, 20 µl of a Vero Bayer cell suspension (3.75 × 10^4 cells/ml) in culture medium was added to each well followed by the addition of 20 µl PIV-3-eGFP virus (MOI = 1) in culture medium, or 20 µl culture medium for cell controls, using a multidrop dispenser.

[12] = system: HCV genotype 1b subgenomic replicon; test: microbe, parasite or virus in culture; format: cell-based; conditions: Hepatitis C virus; mean of at least 3 experiments
D489Y mutant RSV = format: cell-based, respiratory syncytial virus; conditions: A549 cells, time-lapse imaging 48 h
RSV A2 = test: Viral titer in RSV-inoculated BALB/c mice; format: in vivo; conditions: single 40 mg kg−1 dose 1 h before infection
in vitro [13] = conditions: human; remark: listed apart in the source
CMV-AD169-eGFP virus = test: microbe, parasite or virus in culture; format: cell-based, cytomegalovirus; conditions: Human betaherpesvirus 5, AD169, HEL 299; mean of at least 3 experiments
[14] = system: rgRSV224 in human bronchoepithelial cells (HBECs); test: Antiviral potency in air-liquid cultures of HBECs infected with rgRSV224
[15] = molecular target: T3, full-length wild-type RSV F protein (Human respiratory syncytial virus A, UniProt P03420); test: Membrane-bound F protein stability assay (heat-shock flow cytometry, HEK293T cells); format: cell-based; conditions: 55 °C for 10 min
T3 construct: The full-length wild-type RSV F protein was transiently expressed in HEK293T cells; expressed in transfected cells; host or cells: HEK293T
T3 sequence (P03420 26-109): as the sequence (P03420 26-109, stated change not applied) above
T3 sequence (P03420 137-574): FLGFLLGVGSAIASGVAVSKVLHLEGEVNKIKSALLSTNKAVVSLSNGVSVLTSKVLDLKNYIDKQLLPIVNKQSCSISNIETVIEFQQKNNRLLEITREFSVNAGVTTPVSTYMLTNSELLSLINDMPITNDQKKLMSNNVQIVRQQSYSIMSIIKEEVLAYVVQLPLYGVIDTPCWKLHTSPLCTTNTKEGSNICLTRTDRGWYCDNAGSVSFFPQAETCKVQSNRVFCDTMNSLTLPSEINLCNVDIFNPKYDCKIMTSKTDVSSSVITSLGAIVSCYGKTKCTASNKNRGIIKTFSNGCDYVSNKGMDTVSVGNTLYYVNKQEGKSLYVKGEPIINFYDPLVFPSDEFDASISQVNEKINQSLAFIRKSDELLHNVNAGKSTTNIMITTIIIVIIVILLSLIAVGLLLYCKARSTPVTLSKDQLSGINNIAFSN
Protocol: The full-length wild-type RSV F protein was transiently expressed in HEK293T cells. Forty-eight hours post transfection, the cells were detached using an EDTA-containing buffer and the cell suspension with or without added compounds was heat-shocked for 10 min at 55 °C. The cells were stained with the CR9501 and CR9503 antibodies (1 µg ml^−1) directly labeled with AlexaFluor647 (Alexa Fluor® 647 Monoclonal Antibody Labeling Kit, Molecular Probes/Invitrogen). Propidium iodide (Molecular Probes/Invitrogen) was used as a live-dead stain. Flow Cytometry was performed on FACS Canto II instrument (BD Biosciences). The data were analyzed using FlowJo9.6.1 software. A single cell population was selected on the side and forward scatters dot-plot. Within this population, PI-negative cells were analyzed for staining with CR9501 and CR9503 antibodies. Mean fluorescence intensity was calculated and the values of the heat-shocked samples were normalized to untreated (37 °C) samples.

in vivo [16] = conditions: male, Beagle, dog
CVB = CVB assay in Vero Bayer cells; format: cell-based, Coxsackie virus B4; conditions: Enterovirus B, mean of at least 3 experiments
HRV 1b = test: HRV assay (CPE, HeLa RH cells), HRV 1b; conditions: Rhinovirus A, read-out: EC50 HRV 1b
Protocol: as §1

[17] = Cytotoxicity in non-infected MT4-LTR-Luc cells; format: cell-based; conditions: human, mean of at least 3 experiments, read-out: CC50 (HIV-1 row)
Protocol: (§2) Briefly, white 384-well plates were filled in quadruplicate using a customized robot system with serial fourfold dilutions of compound in a final volume of 10 µl culture medium. Then, 15 µl of a MT4-LTR-Luc cell suspension (4 × 10^5 cells per ml) in culture medium was added to each well followed by the addition of 15 µl HIV IIIB virus (MOI = 0.0125) in culture medium using a multidrop dispenser. […] The CC50 value was calculated on the basis of the difference of luminescence between non-treated and compound-treated cells.

[18] = system: RSV-induced cellular influx in the lungs; test: Measurement of cellular influx into the lungs of RSV-infected BALB/c mice; format: in vivo
HIV-1 IIIB virus = test: HIV-1 assay in MT4-LTR-Luc cells; format: cell-based; conditions: Human immunodeficiency virus 1, IIIB; mean of at least 3 experiments
Protocol: as §2

[19] = molecular target: T4, prefusion D489Y mutant RSV F (DS-Cav1) (Human respiratory syncytial virus A, UniProt P03420, D489Y/I379V/M447V/S155C/S190F/S290C/V207L); format: binding; conditions: ITC; 1:1 fits could not be determined
T4 construct: purification tags incl; made in house; host or cells: FreeStyle 293 F cells, with kifunensine
T4 sequence (P03420 26-109, stated change not applied): as the sequence (P03420 26-109, stated change not applied) above
T4 sequence (P03420 137-513, looked up, stated change not applied): as the sequence (P03420 137-513, looked up, stated change not applied) above

[20] = system: RSV-induced pro-inflammatory cytokines and chemokines; test: Cytokine and chemokine analysis in RSV-infected BALB/c mice; format: in vivo; conditions: single 40 mg kg−1 p.o. 1 h before infection, Day 6, mean ± s.e.m., n=6
[21] = molecular target: prefusion-stabilized RSV F protein (DS-Cav1) (respiratory syncytial virus strain A2); test: crystal structure
[22] = mock-treated rgRSV224 during in vitro selection procedure, read-out: EC50 wild-type strain (untreated control)
[23] = 25 mg kg−1 daily starting 1 day after infection
[24] = HBECs, 100 nM, 6 or 24 h after onset of infection
[25] = RSV-infected, single 40 mg kg−1 p.o., BAL, mean ± s.e.m., n=6

Cc1cn2nc([C@@H]3CCCCN3C(=O)c3cc(Cl)ccc3NS(C)(=O)=O)cc2nc1N1CC[C@H](N)C1 [GS-5806, reference compound]
FC (fold change over wild-type strain) mutant strain D489Y ([1]; mutant selected with JNJ-53718678): > 50,000 | FC (fold change over wild-type strain) mutant strain L141W [2]: 379 | EC50 (rgRSV224; [22]): 1e-10 M | EC50 (rgRSV224; read-out: EC50 parent strain (rgRSV224)): 1e-10 M

CS(=O)(=O)CCCn1c(Cn2c(=O)n(CC(F)(F)F)c3ccncc32)cc2cc(Cl)ccc21 [JNJ-53718678]
EC50 (DENV-2): 17.7 µM | binding to post-fusion RSV F (post-fusion RSV F): did not bind | EC50 (recombinant MV): > 100 µM | concentration required for inhibition of the infection rate, L141W mutant RSV (L141W mutant RSV): 100 nM | CC50 at 3 days (in vitro [3]): > 25 µM | CC50 at 3 days (in vitro [4]): > 25 µM | decrease of the RSV titer in both BALF and lavaged-lung tissue (Long strain RSV; 40 mg kg−1 once daily from 24 h until Day 3 post-inoculation): 1.5 log10 | decrease of RSV titer in lungs vs vehicle group (Long strain RSV; single oral prophylactic dose 100 mg kg−1, 1 h before infection, on average): 100 fold | reduction of the viral titer (Long strain RSV; single-dose therapeutic treatment 40 mg kg−1, 24 h after infection): moderate reduction | F ([5]; PO 5 mg kg−1 vs IV 1 mg kg−1): 89% | CLp as fraction of LBF ([5]; male, Beagle, in vivo, iv, 1 mg/kg): ~ 27 % LBF | EC50 (recombinant hMPV): 73 µM | EC50 ([1]; rgRSV224 carrying a D489Y resistance mutation in F, read-out: EC50 (mutant RSV)): 4.1 µM | CC50 (HeLa RH cells): > 100 µM | reduction of the viral RNA titer in BALF and lavaged-lung tissue vs vehicle (RSV M37 strain; [23]): > 95% | reduction of the viral RNA titer in BALF vs vehicle (RSV M37 strain; [23]): ~ 22 fold | reduction of the viral RNA titer in lavaged-lung tissue vs vehicle (RSV M37 strain; [23]): ~43 fold | microscopic lung lesions (RSV M37 strain; 25 mg kg−1 initiated 1 day after infection): lacked microscopic lesions | formation of gross RSV-associated lung lesions (RSV M37 strain; once daily starting 1 day after infection): complete inhibition | RSV infectious titer in BALF and lavaged-lung tissue (RSV M37 strain; oral once daily 1, 5 or 25 mg kg−1 starting 1 day after infection, Day 6): (almost) complete eradication | Cmax (in vivo [6]): 254 ng/mL | Tmax (in vivo [6]): 1 h | AUC(0-t) (in vivo [6]; AUC0-7 lung): 2020 ng·h/mL | AUC(0-t) (in vivo [6]; AUC0-7 plasma): 680 ng·h/mL | melting temperature (Tm) of soluble prefusion F ectodomain [7]: concentration-dependent increase | binding stoichiometry [8]: one inhibitor per trimer | Kd ([8]; read-out: equilibrium dissociation constant (KD)): 0.0074 µM | effect of L141W mutation on binding affinity to prefusion F [9]: dramatic reduction | activity against RSV strains from both A and B subtypes (RSV A and B strains): highly active | EC50 (recombinant PIV-3 strain): 26.3 µM | improvement of activity as compared to BMS-433771 (rgRSV224): > 10 fold | EC50 (rgRSV224; [22]): 1.6e-09 M | EC50 (rgRSV224; pEC50 = -Log10(EC50)(M), preliminary SAR, read-out: pEC50 (converted)): 5.01e-10 M | EC50 (HRV 16): > 100 µM | CC50 at 4 days (in vitro [10]): > 100 µM | CC50 (in vitro [11]): > 100 µM | CC50 at 2 days (in vitro [11]): > 100 µM | EC50 [12]: 24.3 µM | concentration required for inhibition of the infection rate, D489Y mutant RSV (D489Y mutant RSV): 10 µM | viral titer in BALF and lavaged lung (RSV A2): significant decrease | CC50 at 5 days (in vitro [13]): > 100 µM | EC50 (CMV-AD169-eGFP virus): 17.4 µM | reduction of viral replication vs non-treated cells [14, 24]: ~ 1.3 log10 | reduction of viral titer vs non-treated cells [14, 24]: ~ 1.3 log10 | EC50 ([14]; human respiratory syncytial virus, read-out: calculated EC50): 0.0012 µM | fraction of prefusion F on the surface of the cells after heat shock [15]: concentration-dependent increase | Vd (in vivo [16]; in vivo, iv, 1 mg/kg): 2.8 L/kg | AUC(0-inf) (in vivo [16]; in vivo, po, 5 mg/kg): 9690 ng·h/mL | Cmax (in vivo [16]; in vivo, po, 5 mg/kg): 1120 ng/mL | Tmax (in vivo [16]; in vivo, po, 5 mg/kg): 1.7 h | half-life (in vivo [16]; plasma): 4.1 h | clearance (in vivo [16]; plasma, iv, 1 mg/kg): 9 mL/min/kg | EC50 (CVB): 3.73 µM | EC50 (HRV 1b): > 100 µM | CC50 at 2 days [17]: 21.6 µM | reduction of influx of neutrophils ([18]; BALB/c mice, single 40 mg kg−1 dose 1 h before infection): ~ 5.5 fold | CD4+ T cells, mean cell number [18, 25]: 986 ± 113 | CD8+ T cells, mean cell number [18, 25]: 2,757 ± 447 | Monocytes (CD115+ infiltrating into the lung), mean cell number [18, 25]: 33 ± 9 | NK cells, mean cell number [18, 25]: 1,059 ± 130 | Neutrophils, mean cell number [18, 25]: 160 ± 40 | T cells, mean cell number [18, 25]: 2,869 ± 671 | EC50 (HIV-1 IIIB virus): 13.5 µM | effect of D489Y mutation on binding affinity to prefusion F [19]: dramatic reduction | CCL2 mean concentration in BALF [20]: 118 ± 17 pg/mL | CCL3 mean concentration in BALF [20]: 77 ± 11 pg/mL | CCL5 mean concentration in BALF [20]: 111 ± 13 pg/mL | CXCL1 mean concentration in BALF [20]: 145 ± 23 pg/mL | CXCL9 mean concentration in BALF [20]: 1,878 ± 135 pg/mL | CXCL10 mean concentration in BALF [20]: 2,265 ± 332 pg/mL | IFN mean concentration in BALF [20]: 465 ± 109 pg/mL | IL-1 mean concentration in BALF [20]: 171 ± 8 pg/mL | IL-6 mean concentration in BALF [20]: 29 ± 5 pg/mL | IL-12p40 mean concentration in BALF [20]: 0.7 ± 0.4 pg/mL | IL-17 mean concentration in BALF [20]: 3.2 ± 0.3 pg/mL

prefusion-stabilized RSV F protein (DS-Cav1) (domain or fragment)
stoichiometry N [21]: 3
